Measurements from patent publication US20130097725A1, “SOYBEAN NODULATION FACTOR RECEPTOR PROTEINS, ENCODING NUCLEIC ACIDS AND USES THEREFOR” (The University of Queensland, priority 2005, published 2013).
Marks after values point to notes of the source that are not given here.

Experiments:
[1] = test system: soybean plants (nod49, nod139, Bragg); experiment: Interaction of B. japonicum inoculum titer and Nod Factor on nodule number; type: in vivo, Glycine max; settings: for nodule number: nod49, Plus NF 10^−8 M, 35 days
Text: We tested this phenomenon by inoculating nod49 plants with different titers of B. japonicum CB1809 and observed increased partial nodulation success per plant with elevated rhizobial concentration. […] Since infection thread formation is essential for the progression of early CCDs (FIG. 4B), mutations in GmNFR1α result in non-nodulation. Thus GmNFR1α mutants, when exposed to high NF levels, form nodules via normal infection, showing that GmNFR1β suffices for all early nodule ontogeny steps.

[2] = test system: soybean plants (nod49, nod139, Bragg); experiment: as above; type: in vivo, Glycine max; settings: Plus NF 10^−8 M, 35 days

Question: What does the source list for NodV-MeFuc [NF]?
Answer: nodule number ([1]; B. japonicum CB1809 10^3 cfu·ml^−1): 0.0 ^a; nodule number ([1]; B. japonicum CB1809 10^7 cfu·ml^−1): 0.7 ± 0.2 ^b; nodule number ([1]; B. japonicum CB1809 10^10 cfu·ml^−1): 2.3 ± 0.4 ^c; nodulation on addition of NF to the nutrient medium ([1]; nod49 mutant plants, NF 10 nM): significantly increased; nodule number ([2]; Bragg, B. japonicum CB1809 10^3 cfu·ml^−1): 82.5 ± 5.0 ^d; nodule number ([2]; Bragg, B. japonicum CB1809 10^7 cfu·ml^−1): 101.4 ± 8.5 ^e; nodule number ([2]; Bragg, B. japonicum CB1809 10^10 cfu·ml^−1): 104.2 ± 6.9 ^e; nodule number ([2]; nod139, B. japonicum CB1809 10^3 cfu·ml^−1): 0.0 ^a; nodule number ([2]; nod139, B. japonicum CB1809 10^7 cfu·ml^−1): 0.0 ^a; nodule number ([2]; nod139, B. japonicum CB1809 10^10 cfu·ml^−1): 0.2 ± 0.2 ^a
